Laboratory results from paper PMC8049054, “Systematic Assessment of Fragment Identification for Multitarget Drug Design” (Chemmedchem, 2021).

Tests used:
[1] = test system: T1, soluble epoxide hydrolase (sEH); experiment: Differential scanning fluorimetry (DSF) screen on sEH; assay type: binding; conditions: 500 μM fragment, mean of duplicates
T1 construct: For the expression of sEH-H and sEH-Fl transformed E.coli BL21 (DE3) cells were grown in 5052; made in house; host or cells: E. coli BL21 (DE3)
Excerpt: (§1) For the primary screen of this fragment library, we employed differential scanning fluorimetry (DSF, also known as thermal shift). DSF is generally applicable to a large panel of protein targets and provides a robust, low‐cost screening technology for fragment‐based approaches. ^[20] All five proteins of our interest are soluble and were recombinantly expressed in Escherichia coli. We performed an initial fragment screen on all five targets by DSF. The use of a uniform screening method for all targets ensured consistent data and provided the opportunity to identify false positive hits which interfered with the screening technology. The conditions of the DSF assay were optimized for the desired screening and validated with reference compounds (Table S1 in the Supporting Information). Compounds causing a positive thermal shift ΔT m≥1.0 °C were considered as active.
(§2) DSF measurement of the PDFL (single concentration of 500 μM, duplicates, 96‐well format) on the five proteins retrieved 19 fragment hits on sEH, 28 on LTA4H, 12 on 5‐LOX, 16 on RXRα, and 14 on FXR, respectively. Melting point distributions of the screening library for all five targets are depicted in Figure 2. Amongst the hits, three compounds (Table S2) gave a positive signal on all five proteins likely qualifying them as pan assay interference compounds (PAINS). ^[21] Fragments binding to multiple targets (Scheme 1) were identified for seven out of ten target combinations (Figure 2, Table 1). Among them, fragments 4, 6, 7, and 9 match previously identified privileged scaffolds for fatty acid mimetics. ^[14] […] Active ligands containing N‐phenylbenzamide 6 and the N‐phenylbenzylamine 7 have been described for four of the protein targets. Furthermore, indole, which has been characterized as a privileged heterocycle for fatty acid mimetics, ^[14] is present in fragments 5 and 10. Dual 5‐LOX/RXR ligand 1 was present in 5‐LOX inhibitors, while dual FXR/LTA4H modulator 3 is found among known FXR ligands. Fragments 2 (sEH/5‐LOX) and 8 (LTA4H/RXR) are novel scaffolds not appearing in known ligands of any of the five targets.
(§3) Figure S3: SDS page of the purified proteins (proteins RXRα and FXR after TEV cleavage) using a 14% polyacrylamide gel, which was stained with coomassi. Precision Plus Protein™ Unstained Protein Standard s (Bio-Rad Laboratories, Inc. ) was used […]
(§4) All experiments were performed as duplicates using MicroAmp fast 96 -well plates. Each plate contained 80 different compound wells and 16 DMSO control wells. First 0.8 µl of a 25 mM Preswick Library Fragment dilution in DMSO or pure DMSO were placed in each of the well (final concentration 500 µM). Then 39.2 µl of the master mi x (containing protein, Triton x -100, SYPRO® Orange Protein Gel Stain and buffer that corresponds to the tested protein) were added.
Table S4: Final concentrations in DSF experiments:
Protein Final concentrations under screening conditions […]
glycerol, 0.01% (W/V) Triton X-100, 2.05 % DMSO and 2.5x SYPRO® with a pH = 7 […]
(§5) The measurements were performed using a iCycler iQ™ Single -Color Real Time PCR device with a heat rate of 1 °C per min, an excitation wavelength of 490 nm and an emission wavelength of 570 nm. The first derivation calculated by MyiQ Op tical Software 1.0 was analyzed using Microsoft Office Excel 2013 by comparing the maxima. A shift of 1 °C (in case of 5 -LOX 0.9°C) or more compared to the DMSO control were assumed as potentially binding of the fragment.
(§6) (1 picture or pasted object on this page, not shown here)

5‐lipoxygenase (5‐LOX) = target: T2, 5‐lipoxygenase (5‐LOX) (Homo sapiens, UniProt P09917); experiment: Differential scanning fluorimetry (DSF) screen on 5-LOX; assay type: binding; conditions: 500 μM fragment, mean of duplicates
T2 construct: made in house; host or cells: E. coli BL21 (DE3)
T2 sequence (P09917 1-674): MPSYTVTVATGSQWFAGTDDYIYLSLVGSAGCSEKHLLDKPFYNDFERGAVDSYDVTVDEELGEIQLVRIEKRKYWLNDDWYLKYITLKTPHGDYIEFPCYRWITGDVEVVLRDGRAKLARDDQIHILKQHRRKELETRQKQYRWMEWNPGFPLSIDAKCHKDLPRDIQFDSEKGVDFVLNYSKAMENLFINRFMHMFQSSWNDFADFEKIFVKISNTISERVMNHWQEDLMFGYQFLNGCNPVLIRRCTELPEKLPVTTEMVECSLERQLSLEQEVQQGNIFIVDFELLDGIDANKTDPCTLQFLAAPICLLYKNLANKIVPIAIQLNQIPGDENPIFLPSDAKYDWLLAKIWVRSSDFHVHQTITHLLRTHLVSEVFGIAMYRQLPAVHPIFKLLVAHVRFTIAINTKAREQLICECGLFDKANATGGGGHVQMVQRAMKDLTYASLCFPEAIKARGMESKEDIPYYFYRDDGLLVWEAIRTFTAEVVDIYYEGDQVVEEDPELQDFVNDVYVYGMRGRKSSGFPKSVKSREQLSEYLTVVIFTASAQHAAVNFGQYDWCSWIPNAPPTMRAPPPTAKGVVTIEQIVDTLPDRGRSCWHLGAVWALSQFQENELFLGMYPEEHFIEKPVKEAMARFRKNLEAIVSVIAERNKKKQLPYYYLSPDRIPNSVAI
Excerpt: as §1, §2, §3, §4
Table S4: Final concentrations in DSF experiments: […]
5-LOX 500 µM compound, 3.5 µM protein, 0.87x DPBS, 0.87 mM EDTA, 0.01% (W/V) Triton X-100, 2.1% DMSO and 5x SYPRO® with a pH = 7.5 […]
as §5, §6

Structure (SMILES)	DSF/ΔT m sEH [1]	DSF/ΔT m 5‐LOX (5‐lipoxygenase (5‐LOX))
c1ccc(N2CCNCC2)nc1 [Compound 1]	0.0±0.0 °C	0.9±0.0 °C
Cc1cc(=O)n(-c2ccc(C)c(C)c2)[nH]1 [Compound 2]	2.2±0.0 °C	1.1±0.0 °C
CCCCOc1cc(C(=O)OC)ccc1N [Compound 3]	0.0±0.0 °C	−1.1±0.0 °C
Oc1ccc(Cc2ccccc2)cc1 [Compound 4]	0.0±0.0 °C	−1.1±0.0 °C
Oc1ccc2cc[nH]c2c1 [Compound 5]	0.0±0.0 °C	−0.1±0.0 °C
Cc1ccccc1C(=O)Nc1ccccc1 [Compound 6]	2.0±0.0 °C	−1.4±2.1 °C

The next lines start with the values.

DSF/ΔT m sEH [1]	DSF/ΔT m 5‐LOX (5‐lipoxygenase (5‐LOX))	Structure (SMILES)
1.0±0.0 °C	0.9±0.0 °C	CCN(Cc1ccccc1)c1ccccc1 [Compound 7]
–	−0.1±0.0 °C	Clc1ccc2c(c1)Nc1ccccc1CC2 [Compound 8]
1.0±0.0 °C	−1.1±0.0 °C	Oc1ccc(-c2ccc(F)cc2F)cc1 [Compound 9]
0.6±0.7 °C	0.9±0.0 °C	Fc1ccc(-c2c[nH]c3ccccc23)cc1 [Compound 10]
